Read-outs that look alike come from different tables or passages of the source.
Columns and labels:
H. contortus xL3s = experiment: H. contortus xL3 motility dose-response assay; format: cell-based, Haemonchus contortus; settings: for IC50: read-out: Worm motility IC50 ± SD, H. contortus xL3s; for fold increased activity compared to UMW-9729, H. contortus larvae: ratio of xL3 motility IC50 to parent UMW-9729
Procedure: Immediately prior to use in assays, H. contortus L3s were exsheathed via exposure to 0.15 % (v/v) sodium hypochlorite for 20 min at 38 °C ([Preston et al., 2015]), achieving an exsheathment rate of 90 %. The larvae were then immediately washed five times with 50 mL of sterile physiological saline (pH 7.0) by centrifugation at 2000×g (5 min) and resuspended (at a concentration of 300 xL3s per 50 μL) in sterile (autoclaved) lysogeny broth (LB; cf. [Bertani, 1951]; [Taki et al., 2021b]), supplemented with final concentrations of 100 IU/mL of penicillin, 100 μg/mL of streptomycin and 0.25 μg/mL of amphotericin B (Fungizone®, cat. No. 15240-062, Gibco, Thermo Fisher Scientific, Waltham, MA, USA); this supplemented LB was designated LB*.
The dose-response assay for H. contortus followed a well-established protocol ([Taki et al., 2021b]); it was employed to evaluate the potency of hit compounds against this nematode. Test compounds were assessed individually for an effect on the motility of xL3s (10-point, 2-fold serial dilution in LB*, 40 μM–[…]). […] A solution of LB* was used as a negative control. The test compounds and positive control compounds (monepantel and moxidectin) were arrayed in triplicate across individual flat-bottom 96-well microplates, with six wells on each plate containing the negative control. Added to each well were 300 xL3s of H. contortus in 50 μL of LB* to give a final volume of 100 μL. Plates were then placed in a CO2 incubator (10 % (v/v) CO2, 38 °C, >90 % humidity; Forma, model no. 311, Thermo Fisher Scientific, USA). […] Over a period of 15 min, disturbance of an infrared beam in individual wells was recorded as an ‘activity count’. Raw ‘activity counts’ for individual wells were normalised to the negative-controls. The compound concentrations were log10-transformed and fitted using a variable slope four-parameter equation, using the ordinary least squares fit model, employing Prism (v.9.1.0 GraphPad Software, San Diego, CA, USA). Larval development was established at 168 h of incubation with compound, as described previously ([Preston et al., 2015]). The phenotypes of larvae were examined using a microscope ([Preston et al., 2015]) and recorded.

C. elegans young adults = experiment: C. elegans young adult motility dose-response assay; format: cell-based, Caenorhabditis elegans; settings: for IC50: read-out: Worm motility IC50 ± SD, C. elegans young adults
Procedure: The eggs were then washed five times with 15 mL of sterile M9 buffer (centrifugation at 500×g, 2 min). […] were collected from plates and washed twice with sterile M9 buffer by centrifugation (500×g, 2 min) to remove E. coli OP50, and then resuspended to a concentration of 100 larvae per 50 μL in sterile (autoclaved) LB*. The dose-response assay for C. elegans followed a well-established protocol ([Taki et al., 2021a]) and was employed to evaluate the potency of hit compounds against this nematode. […] Two compounds, monepantel (ZolvixTM; Elanco, Australia) and moxidectin ([…], France) were used as positive controls and prepared in the same manner as the test compounds. […] The test compounds and positive control compounds were arrayed in triplicate across individual flat-bottom 96-well microplates (cat. no. 3596; Corning, Corning, NY, USA), with six wells on each plate containing the negative control. Added to each well were 100 C. elegans in 50 μL of LB* to give a final volume of 100 μL. Plates were then placed in an incubator ([…], model no. IMP180, Thermo Fisher Scientific, USA) at 20 °C for 40 h. […] Over 15 min, disturbance of an infrared beam in individual wells was recorded as an 'activity count'. Raw 'activity counts' for each well were normalised to the negative controls. The compound concentrations were log10-transformed and fitted using a variable slope four-parameter equation, using the ordinary least squares fit model, employing the program Prism (v.9.1.0 GraphPad Software, San Diego, CA, USA).

[1] = test system: adult females of Haemonchus contortus; experiment: Motility of adult female H. contortus in vitro; format: cell-based; settings: 40 μM
Procedure: Adult H. contortus were collected from the abomasa of sheep infected for 10 weeks, washed extensively with phosphate-buffered saline (PBS, pH 7.4) and subsequently in RPMI 1640 media supplemented with final concentrations of 2 mM L-glutamine, 100 IU/mL of penicillin, 100 μg/mL of streptomycin and 0.25 μg/mL of amphotericin B (Thermo Fisher Scientific, Scoresby, VIC, Australia; this supplemented RPMI was designated RPMI*). Female and male worms were collected and separated immediately prior to compound testing.
The activity of UMW-9729 and six derivatives (12, 14, 15, 16, 18 and 25) was assessed on adult female specimens of H. contortus in an established assay ([Taki et al., 2020]). The compound was added in triplicate to the wells of a 24-well plate (cat. no. 3524; Corning, USA) at a concentration of 40 μM in 500 μL of RPMI* (RPMI supplemented with final concentrations of 2 mM L-glutamine, 100 IU/mL of penicillin, 100 μg/mL of streptomycin and 0.25 μg/mL of amphotericin B; Thermo Fisher Scientific, Scoresby, VIC, Australia). Two positive-control compounds, monepantel and moxidectin, and a negative control containing 1 % (v/v) DMSO only, were included in triplicates on the same plate. Three adult females were added to each of the triplicate wells containing either the test compound or the controls and placed in a CO2 incubator (10 % (v/v) CO2, 40 °C, >90 % relative humidity) for 1 day. A video recording (30 s) of each well was taken at 3 h, 6 h, 12 h and 24 h during the total incubation period to assess the reduction in worm motility, which was scored as 3 (“good”), 2 (“low”), 1 (“very low”) or 0 (“no movement”; cf. [Taki et al., 2020]). For each test or control compound, the motility scores for each of the triplicate wells were calculated, normalised with reference to the negative control (100 % motility) and recorded as a percentage.

[2] = Haemonchus contortus, 90 h, xL3s, 90 h incubation (table title), three independent assays in triplicate
[3] = Caenorhabditis elegans, 40 h, young adults, 40 h incubation, three independent assays in triplicate
[4] = young adults, 40 h incubation, three independent assays in triplicate
[5] = xL3s, 90 h incubation (table title), three independent assays in triplicate
[6] = 24 h of incubation, normalised to negative control

| SMILES | IC50 (H. contortus xL3s; [2]) [µM] | IC50 (C. elegans young adults; [3]) [µM] | also measured |
| --- | --- | --- | --- |
| Clc1ccccc1C#Cc1ccc(-c2ccn[nH]2)cc1 [Compound 9] | 4.8 ± 0.7 | > 40 |  |
| C(#Cc1ccc(-c2ccn[nH]2)cn1)c1ccccc1 [Compound 24] | 24 ± 8.5 | > 40 | Worm motility IC50 ± SD, C. elegans young adults (C. elegans young adults; [4]): loss in activity |
| Cn1nccc1-c1ccc(C#Cc2ccccc2)cc1 [Compound 25] |  |  | fold increased activity compared to UMW-9729, H. contortus larvae (H. contortus xL3s): 3 fold; Maximum motility inhibition (MMI), H. contortus xL3s (H. contortus xL3s; xL3s, 90 h incubation (table title)): 73%; IC50 (H. contortus xL3s; [5]): 1.9 ± 0.14 µM; reduction of worm motility, adult females of H. contortus ([1]; 3 h time point): did not display a reduction in motility; reduction of worm motility, adult females of H. contortus ([1]; 6 h time point): did not display a reduction in motility; reduction of worm motility, adult females of H. contortus ([1]; 12 h time point): did not display a reduction in motility; Worm motility IC50 ± SD, C. elegans young adults (C. elegans young adults; [4]): inactive; IC50 (C. elegans young adults; [4]): > 40 µM |
| CO/N=C1\C[C@]2(C[C@@H]3C[C@@H](C/C=C(\C)C[C@@H](C)/C=C/C=C4\CO[C@@H]5[C@H](O)C(C)=C[C@@H](C(=O)O3)[C@]45O)O2)O[C@H](/C(C)=C/C(C)C)[C@H]1C [Moxidectin, moxidectin, reference compound] | 18 ± 9.1 | 0.003 |  |
| C(#Cc1ccc(-c2ccn[nH]2)cc1)c1ccncc1 [Compound 22] | > 40 | > 40 | Worm motility IC50 ± SD, H. contortus xL3s (H. contortus xL3s; [5]): inactive |
| Cc1nc(-c2ccc(C#Cc3ccccc3)cc2)no1 [Compound 32] | 5.1 ± 0.5 | 18 ± 11 |  |
| COc1ccccc1C#Cc1ccc(-c2ccn[nH]2)cc1 [Compound 6] | > 40 | > 40 |  |
| C#Cc1ccc(-c2ccn[nH]2)cc1 [Compound 27, 5-(4-ethynylphenyl)-1H-pyrazole] | > 40 | > 40 | Worm motility IC50 ± SD, H. contortus xL3s (H. contortus xL3s; [5]): complete loss of activity |
| Fc1cccc(C#Cc2ccc(-c3ccn[nH]3)cc2)c1 [Compound 14] | 5.2 ± 0.9 | 9 | reduction of worm motility, adult females of H. contortus [1, 6]: 29%; IC50 (C. elegans young adults; [4]): 8 ± 1.8 µM |
| FC(F)(F)c1ccccc1C#Cc1ccc(-c2ccn[nH]2)cc1 [Compound 7] | > 40 | > 40 |  |
| Fc1ccccc1C#Cc1ccc(-c2ccn[nH]2)cc1 [Compound 8] | 12 | 3.7 ± 1.9 | IC50 (H. contortus xL3s; [5]): 13 ± 4.5 µM |
| Cc1ccc(C#Cc2ccc(-c3ccn[nH]3)cc2)cc1 [Compound 18] | 2 ± 0.1 | > 40 | fold increased activity compared to UMW-9729, H. contortus larvae (H. contortus xL3s): 3 fold; reduction of worm motility, adult females of H. contortus [1, 6]: 15%; Worm motility IC50 ± SD, C. elegans young adults (C. elegans young adults; [4]): inactive |
| FC(F)(F)c1cccc(C#Cc2ccc(-c3ccn[nH]3)cc2)c1 [Compound 12] | 8.2 ± 1.9 | 12 ± 7 | reduction of worm motility, adult females of H. contortus [1, 6]: 29% |
| C[C@](C#N)(COc1cc(C#N)ccc1C(F)(F)F)NC(=O)c1ccc(SC(F)(F)F)cc1 [Monepantel, monepantel, reference compound] | 0.6 ± 0.2 | 0.03 ± 0.01 |  |
| N#Cc1ccc(C#Cc2ccc(-c3ccn[nH]3)cc2)cc1 [Compound 21] | 6.7 ± 4.2 | > 40 |  |
| Clc1ccc(C#Cc2ccc(-c3ccn[nH]3)cc2)cc1 [Compound 20] | 3.7 ± 1.1 | > 40 |  |
| COc1ccc(C#Cc2ccc(-c3ccn[nH]3)cc2)cc1 [Compound 19] | > 40 | > 40 | Worm motility IC50 ± SD, H. contortus xL3s (H. contortus xL3s; [5]): inactive |
| C(#Cc1cccc(-c2ccn[nH]2)c1)c1ccccc1 [Compound 26, 5-(3-(phenylethynyl)phenyl)-1H-pyrazole] | > 40 | > 40 | Worm motility IC50 ± SD, H. contortus xL3s (H. contortus xL3s; [5]): complete loss of activity |
| C[Si](C)(C)C#Cc1ccc(-c2ccn[nH]2)cc1 [Compound 23] |  |  | IC50 (H. contortus xL3s; Haemonchus contortus, 90 h): > 40 µM; Worm motility IC50 ± SD, H. contortus xL3s (H. contortus xL3s; [5]): complete loss of activity; IC50 (C. elegans young adults; Caenorhabditis elegans, 40 h): > 40 µM |
| FC(F)(F)Oc1cccc(C#Cc2ccc(-c3ccn[nH]3)cc2)c1 [Compound 13] | > 40 | > 40 |  |
| Cc1cccc(C#Cc2ccc(-c3ccn[nH]3)cc2)c1 [Compound 11] | 13 ± 5.7 | > 40 | Worm motility IC50 ± SD, C. elegans young adults (C. elegans young adults; [4]): lost activity |
| Oc1cccc(C#Cc2ccc(-c3ccn[nH]3)cc2)c1 [Compound 17] | 29 ± 12 | 25 ± 7 |  |
| C(#Cc1ccccn1)c1ccc(-c2ccn[nH]2)cc1 [Compound 10] | 8.7 ± 2.5 | > 40 | Worm motility IC50 ± SD, C. elegans young adults (C. elegans young adults; [4]): loss of compound activity |
| c1ccc(CCc2ccc(-c3ccn[nH]3)cc2)cc1 [Compound 28] | 16 ± 4.9 | > 40 |  |

— PMC10992699, “Comparative structure activity and target exploration of 1,2-diphenylethynes in Haemonchus contortus and Caenorhabditis elegans” (International Journal for Parasitology: Drugs and Drug …, 2024)
